# Tested on: HCV genotype-1a variant with glutamine 30 changed to glutamate in the NS5A protein
# Format: cell-based
# Details: test compound titrated with BMS-790052 fixed at 200 nM; genotype 1a Q30E replicon
# How it was run: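 Synergy was assessed by combining several fixed amounts of an NS5A-targeting compound with a titration of the second compound of interest.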
row,SMILES,Fold-Synergistic 1a (Q30E) [fold]
1,CC(C)(C)C(NC(=O)C1CCCCN1CC(F)(F)F)c1nc(-c2ccc(-c3ccc(-c4c[nH]c(C(NC(=O)C5CCCCN5CC(F)(F)F)C(C)(C)C)n4)cc3)cc2)c[nH]1 [Compound L-51],>100
2,CC(C)(C)OC(=O)NC1(C(=O)N[C@H](c2nc(-c3ccc(-c4ccc(-c5c[nH]c([C@@H](NC(=O)C6(NC(=O)OC(C)(C)C)CCC(=O)CC6)C(C)(C)C)n5)cc4)cc3)c[nH]2)C(C)(C)C)CCC(=O)CC1 [Compound W-233],>100
3,CC(C)(C)[C@H](NC(=O)C1(CF)CC1)c1nc(-c2ccc(-c3ccc(-c4c[nH]c([C@@H](NC(=O)C5(CF)CC5)C(C)(C)C)n4)cc3)cc2)c[nH]1 [Compound P-14],>100
4,Cc1ccc(S(=O)(=O)NC(c2nc(-c3ccc(-c4ccc(-c5c[nH]c(C(NS(=O)(=O)c6ccc(C)cc6)C(C)(C)C)n5)cc4)cc3)c[nH]2)C(C)(C)C)cc1 [Compound L-117],>100
5,COc1ccccc1C(=O)N[C@H](c1nc(-c2ccc(-c3ccc(-c4c[nH]c([C@@H](NC(=O)c5ccccc5OC)C(C)(C)C)n4)cc3)cc2)c[nH]1)C(C)(C)C [Compound P-28],>100
6,CC(C)(C)OC(=O)N1CC(C)(C(=O)NC(c2nc(-c3ccc(-c4ccc(-c5c[nH]c(C(NC(=O)C6(C)CN(C(=O)OC(C)(C)C)C6)C(C)(C)C)n5)cc4)cc3)c[nH]2)C(C)(C)C)C1 [Compound L-63],>100
7,CC(C)(C)OC(=O)N1CCCC[C@@H]1C(=O)N[C@H](c1nc(-c2ccc(-c3ccc(-c4c[nH]c([C@@H](NC(=O)[C@H]5CCCCN5C(=O)OC(C)(C)C)C(C)(C)C)n4)cc3)cc2)c[nH]1)C(C)(C)C [Compound L-16],>100
8,CC(C)(C)[C@H](NC(=O)Cc1noc2ccccc12)c1nc(-c2ccc(-c3ccc(-c4c[nH]c([C@@H](NC(=O)Cc5noc6ccccc56)C(C)(C)C)n4)cc3)cc2)c[nH]1 [Compound P-16],>100
9,COc1ccccc1C(=O)N[C@H](c1ncc(-c2ccc(-c3ccc(-c4cnc([C@@H](NC(=O)c5ccccc5OC)C(C)C)[nH]4)cc3)cc2)[nH]1)C(C)C [Compound S-68],>100
10,CC(C)[C@H](NC(=O)[C@@H]1Cc2ccccc21)c1ncc(-c2ccc(-c3ccc(-c4cnc([C@@H](NC(=O)[C@@H]5Cc6ccccc65)C(C)C)[nH]4)cc3)cc2)[nH]1 [Compound P-110],>100
11,CC(C)(C)[C@H](NC(=O)C1(CO)COC1)c1nc(-c2ccc(-c3ccc(-c4c[nH]c([C@@H](NC(=O)C5(CO)COC5)C(C)(C)C)n4)cc3)cc2)c[nH]1 [Compound L-125],>100
12,CC(C)(C)[C@H](NC(=O)c1ccccc1O)c1nc(-c2ccc(-c3ccc(-c4c[nH]c([C@@H](NC(=O)c5ccccc5O)C(C)(C)C)n4)cc3)cc2)c[nH]1 [Compound Y-72],>100
13,CCOC(=O)N[C@@H](C(=O)N[C@H](c1ncc(-c2ccc(-c3ccc(-c4cnc([C@@H](NC(=O)[C@H](NC(=O)OCC)C(C)C)C(C)C)[nH]4)cc3)cc2)[nH]1)C(C)C)C(C)C [Compound S-247],>100
14,CC(C)(C)[C@H](NC(=O)C(C)(C)C(C)(C)O)c1ncc(-c2ccc(-c3ccc(-c4cnc([C@@H](NC(=O)C(C)(C)C(C)(C)O)C(C)(C)C)[nH]4)cc3)cc2)[nH]1 [Compound B69],>100
15,"CC1(O)CC(C(=O)N[C@H](c2nc(-c3ccc(-c4ccc(-c5c[nH]c([C@@H](NC(=O)C6CC(C)(O)C6)C(C)(C)C)n5)cc4)cc3)c[nH]2)C(C)(C)C)C1 (single isomer, unassigned) [Compound W-169]",>100
16,CC(C)[C@H](NC(=O)CCCc1ccccc1)c1ncc(-c2ccc(-c3ccc(-c4cnc([C@@H](NC(=O)CCCc5ccccc5)C(C)C)[nH]4)cc3)cc2)[nH]1 [Compound S-57],>100
17,CC1(C)CCN(C(=O)C(=O)N2CCC(F)(F)CC2)C1c1nc(-c2ccc(-c3ccc(-c4c[nH]c(C5N(C(=O)C(=O)N6CCC(F)(F)CC6)CCC5(C)C)n4)cc3)cc2)c[nH]1 (stereo not drawn) [Compound W-222],>100
18,"CC1(C(O)C(C)(C)C(=O)N[C@H](c2nc(-c3ccc(-c4ccc(-c5c[nH]c([C@@H](NC(=O)C(C)(C)C(O)C6(C)CC6)C(C)(C)C)n5)cc4)cc3)c[nH]2)C(C)(C)C)CC1 (single isomer, unassigned) [Compound N-151C]",>100
19,O=C(c1cnc(Cl)c2ccccc12)N1CCC[C@H]1c1ncc(-c2ccc(-c3ccc(-c4cnc([C@@H]5CCCN5C(=O)c5cnc(Cl)c6ccccc56)[nH]4)cc3)cc2)[nH]1 [Compound S-200],>100
20,CCOC(C)(C)C(=O)C(=O)N[C@H](c1ncc(-c2ccc(-c3ccc(-c4cnc([C@@H](NC(=O)C(=O)C(C)(C)OCC)C(C)C)[nH]4)cc3)cc2)[nH]1)C(C)C [Compound P-117],>100
21,CC(C)(C)[C@H](NS(=O)(=O)C1CCCCC1)c1nc(-c2ccc(-c3ccc(-c4c[nH]c([C@@H](NS(=O)(=O)C5CCCCC5)C(C)(C)C)n4)cc3)cc2)c[nH]1 [Compound L-118],>100
22,CCCOC(=O)N1CCC[C@H]1c1ncc(-c2ccc(-c3ccc(-c4cnc([C@@H]5CCCN5C(=O)OCCC)[nH]4)cc3)cc2)[nH]1 [Compound S-218],>10
23,Cc1cc(-c2ccc(-c3c[nH]c([C@@H](NC(=O)C4CCC(F)(F)CC4)C(C)C)n3)cc2)ccc1-c1c[nH]c([C@@H](NC(=O)C2CCC(F)(F)CC2)C(C)C)n1.O=C(O)C(F)(F)F [Compound N-82],>100
24,COCC(NC(=O)C1CCC(F)(F)CC1)c1nc(-c2ccc(-c3ccc(-c4c[nH]c(C(COC)NC(=O)C5CCC(F)(F)CC5)n4)cc3)cc2)c[nH]1 [Compound L-102],>100
25,CC[C@@H](NC(=O)OC)C(=O)N[C@H](c1ncc(-c2ccc(-c3ccc(-c4cnc([C@@H](NC(=O)[C@@H](CC)NC(=O)OC)C(C)C)[nH]4)cc3)cc2)[nH]1)C(C)C [Compound P-104],>100
26,CC1(C(=O)NC(c2nc(-c3ccc(-c4ccc(-c5c[nH]c(C(NC(=O)C6(C)CC(F)(F)CCO6)C(C)(C)C)n5)cc4)cc3)c[nH]2)C(C)(C)C)CC(F)(F)CCO1 (stereo not drawn) [Compound Y-75],>100
27,CC(C)S(=O)(=O)CC(=O)N[C@H](c1nc(-c2ccc(-c3ccc(-c4cnc([C@@H](NC(=O)CS(=O)(=O)C(C)C)C(C)(C)C)[nH]4)cc3)cc2)c[nH]1)C(C)(C)C [Compound B-182],>100
28,C#CCOC(=O)N1CCC[C@H]1c1ncc(-c2ccc(-c3ccc(-c4cnc([C@@H]5CCCN5C(=O)OCC#C)[nH]4)cc3)cc2)[nH]1 [Compound S-224],>10
29,CC(C)[C@H](NC(=O)C(C)(C)Oc1ccccc1F)c1ncc(-c2ccc(-c3ccc(-c4cnc([C@@H](NC(=O)C(C)(C)Oc5ccccc5F)C(C)C)[nH]4)cc3)cc2)[nH]1 [Compound Y-33],>100
30,CC(C)[C@H](NC(=O)c1cc2ccccc2o1)c1ncc(-c2ccc(-c3ccc(-c4cnc([C@@H](NC(=O)c5cc6ccccc6o5)C(C)C)[nH]4)cc3)cc2)[nH]1 [Compound S-87],>100

# Source: patent US20160158200A1, “Combinations of Hepatitis C Virus Inhibitors” (priority 2013, published 2016)
